Non-standard residues stand in square brackets, D forms with d. Residues, ends and D or L forms follow the SMILES beside them. *: point of attachment. Nle = CCCC[C@H](N)C(=O)O; Cbz = O=C(OCc1ccccc1)*
System: MKRN1
Assay: Levels of ectopically expressed MKRN1 by anti-V5 immunoblotting
Type: cell-based, human
Procedure: FIG. 3. MKRN1 interacts with hTERT. (A) Analysis of the physical interaction between hTERT and MKRN1 using the yeast two-hybrid assay. Five domains of hTERT were analyzed for binding to MKRN1. TRF1 bait was used as a negative control. Blue signal on the SG-HWU/X plate indicates activation of the reporter gene, LacZ. S, synthetic; G, galactose; H, histidine (−); W, tryptophan (−); U, uracil (−); X, X-gal. (B) Schematic diagram of MKRN1 domains. Amino acid sequences (SEQ ID NOS 3-5, respectively in order of appearance) surrounding the RING finger domain in MKRN1 and mutants used in this study. Cysteines and a histidine in the RING finger domain are shown in red. Mutated residue in MKRN1^H307E is shown in blue. (C) H1299 cells co-transfected with hTERT-HA and MKRN1-V5 were either untreated or treated for 2 hours with 10 μg/ml ALLnN. Anti-HA immunoprecipitates were analyzed by immunoblotting using an anti-V5 antibody probe. […] (D) H1299 cells co-transfected with Flag-hTERT and MKRN1-V5 were either untreated or treated for 2 hours with 10 μM MG132. Anti-Flag immunoprecipitates were analyzed by immunoblotting using an anti-V5 antibody probe. […] Flag-hTERT was visualized with an anti-Flag antibody probe.
FIG. 4. MKRN1 functions as an E3 ubiquitin-ligase for hTERT in vitro and in vivo. (A) HA-tagged hTERT (residues 946-1132) was incubated MKRN1 or mutants in the presence of E1, E2, His6-ubiquitin (6×His tag disclosed as SEQ ID NO: 7). Samples were resolved by 6% SDS-PAGE and analyzed by immunoblotting with an anti-HA antibody probe. (B) H1299 cells were co-transfected with Flag-hTERT, HA-ubiquitin, MKRN1-V5, and together with either MKRN1^H307E-V5 or MKRN1^Δ^C-V5 as specified. Cells were untreated or treated with 10 μM MG132 for 2 hours. Anti-Flag immunoprecipitates and cell lysates were analyzed by immunoblotting with anti-HA antibody and anti-V5 antibody probes, respectively. (C) H1299 cells co-transfected with Flag-hTERT and HA-ubiquitin, and together with or without MKRN1-V5 as indicated were treated with 10 μM MG132 for the indicated times. Anti-Flag immunoprecipitates and cell lysates were analyzed by immunoblotting with anti-HA antibody and anti-V5 antibody probes, respectively.
FIG. 5. Overexpression of MKRN1 decreases telomerase activity and telomere length. (A) HT1080 cells were stably transfected with MKRN1-V5 or an empty vector. The cells were untreated or treated for 2 hours with 10 μM MG132. Cell lysates were analyzed by immunoblotting with anti-V5 antibody probe. (B) Stable HT1080 cell lines (MKRN1 and vector) were harvested at 45 PD, and telomerase activities were measured with different amounts of proteins using the TRAP assay. The lane labeled LB corresponds to the negative control (lysis buffer only). ITAS represents the internal telomerase assay standard. (C) Cell lysates from stable HT1080 cell lines were analyzed by immunoprecipitation with anti-hTERT antibody followed by immunoblotting using same antibody probe. (D) Representative results of RT-PCR analysis for the expression of MKRN1, hTERT, and hTR in stable HT1080 cell lines. RT-PCR products from each sample were normalized to glyceraldehyde-3-phosphate dehydrogenase (GAPDH) signal. (E) Stable HT1080 cell lines were harvested at 45 PD, and genomic DNA was digested with RsaI and HinfI, followed by Southern blotting using a telomere repeat probe.
H1299 cells were transiently transfected with the expression vectors indicated in the figure legends using TransFast transfection reagent (Promega, Madison, Wis.) according to the manufacturer's instructions. Cells were lysed with buffer containing 0.5% NP-40, 50 mM Tris-HCl (pH 7.5), 150 mM NaCl, 2 mM phenyl methylsulphonyl fluoride. […]

| SMILES | MKRN1 expression (H1299, MKRN1-V5, 10 μM MG132, 2 hours) | unmodified and polyubiquitinated MKRN1 species over time (H1299, MKRN1-V5, 10 μM MG132, indicated times) | amount of MKRN1^ΔC (H1299, MKRN1^ΔC-V5, 10 μM MG132, 2 hours) | MKRN1^H307E expression level, MG132 treatment versus absence (H1299 cotransfected with MKRN1 and MKRN1^H307E, 10 μM MG132) | MKRN1 level in stable HT1080 cells (HT1080 stably expressing MKRN1-V5, 10 μM MG132, 2 hours) | MKRN1 species in cell lysates (H1299 co-transfected with hTERT-HA and MKRN1-V5, 10 μg/ml ALLnN, 2 hours) |
| --- | --- | --- | --- | --- | --- | --- |
| CC(C)C[C@@H](C=O)NC(=O)[C@H](CC(C)C)NC(=O)[C@H](CC(C)C)NC(=O)OCc1ccccc1 [MG132] (Cbz-Leu-Leu-Leu-aldehyde) | clearly elevated | increased in a time-dependent manner | no effect | ~2 fold | substantial increase | – |
| CCCC[C@@H](C=O)NC(=O)[C@H](CC(C)C)NC(=O)[C@H](CC(C)C)NC(C)=O [ALLnN] (Ac-Leu-Leu-[Nle]-aldehyde) | – | – | – | – | – | significant increase |

Reference: patent US7901906B2, “Targeting of MKRN1 for identifying cancer treatment agents” (University of Central Florida Research Foundation, Inc., priority 2006, dated 2011)
